This is an account of results in patent publication US20120107323A1, “KINASE PROTEIN BINDING INHIBITORS” (University of Florida, priority 2009, published 2012).

In data set [1] the test system is KYSE70 esophageal cancer cells. The data set can be described thus: Cell viability (MTT), KYSE70. The format is cell-based. On the procedure:
(§1) Cell viability (MTT) and CFSE Proliferation assay: Cells were plated in 96-well plates and let adhere overnight. After cell treatment, cell viability was measured by 3-(4,5-dimethylthiazol-2-yl)-2,5-diphenyl tetrazolium bromide (MTT) assay (CellTiter 96® Aqueous, Promega, Madison, Wis.).
(§2) Cell viability and detachment assays: After cells were treated with siRNA transfection, cell viability was measured by 3-(4,5-dimethylthiazol2-yl)-2,5-diphenyl tetrazolium bromide (MTT) assay (CellTiter 96® AQueous, Promega, Madison, Wis.). Briefly, 20 μl of the tetrazolium compound was added to each well. The cells were then incubated at 37° C. for 1 h. The plate was read at 490 nm with a plate reader to determine the viability. In detachment assays, detached and attached cells were harvested separately and counted in a hemocytometer. The percentage of detachment was calculated by dividing the number of detached cells by the total number of cells. Apoptosis assays: After treatment, attached and detached cells were collected, counted and prepared for terminal uridine deoxynucleotidyl transferase (TUNEL) assay by utilizing an APO-BRDU kit (BD Pharmingen, San Diego, Calif.) according to the manufacturer's instructions. Stained cells were analyzed with a fluorescence-activated cell sorting-Calibur flow cytometer (BD Biosciences). Calculation of the percentage of apoptotic cells in the sample was completed with CellQuest software (BD Biosciences). Apoptotic cells were also analyzed by Hoechst staining. Hoechst 33342 (1 µg/rill) was added to the fixed cells and the specimens were mounted on glass coverslips. The slides were viewed under the Zeiss microscope for apoptotic nuclei. The percent of apoptotic cells was calculated as the ratio of apoptotic cells to total number of cells.
In addition, the effect of INT2-31 on cell viability of esophageal, pancreatic and breast cancer cell lines was analyzed and the IC50 value for each cell line was determined, as shown in Table 1. […] Similar to melanoma results, INT2-31 inhibits viability more in cancer cells compared to normal cells. Sensitivity of the cells to INT2-31 varied and directly correlated to the FAK and IGF-1R expression level of the cells.

Data set [2] concerns TE7 esophageal cancer cells. The data set can be described thus: Cell viability (MTT), TE7. The format is cell-based. The conditions noted are these: TE7, 72 hours; read-out: IC50 of INT2-31, cell viability. The method, then: as §1
as §2, with “Calculation of the percentage of apoptotic cells in the sample was completed with CellQuest software (BD Biosciences).” left out, “Hoechst 33342 (1 µg/rill) was added to the fixed cells and the specimens were mounted on glass coverslips. The slides were viewed under the Zeiss microscope for apoptotic nuclei. The percent of apoptotic cells was calculated as the ratio of apoptotic cells to total number of cells.” left out

The subject of a further data set is C8161 melanoma cells. The data set can be described thus: CFSE cell proliferation assay, C8161. It counts as cell-based, human. The conditions noted are these: effect greater than in A375. The method, then:
For staining with CFSE (Molecular Probes, Eugene, Oreg.)., 1×10^7/ml cells were suspended in PBS and incubated at 37° C. for 5 min with the 10 μM of CFSE. Stained cells were cultured with medium alone or with inhibitor for 24, 48, and 72 hours, fixed and analyzed by a FACS Calibur cytometer (Becton Dickinson, San Jose, Calif.).

The subject of data set [3] is TE3 esophageal cancer cells. The data set can be described thus: Cell viability (MTT), TE3. The format is cell-based. The settings on record: TE3, 72 hours; read-out: IC50 of INT2-31, cell viability. On the procedure: as §1
as §2, with “Calculation of the percentage of apoptotic cells in the sample was completed with CellQuest software (BD Biosciences).” left out, “Hoechst 33342 (1 µg/rill) was added to the fixed cells and the specimens were mounted on glass coverslips. The slides were viewed under the Zeiss microscope for apoptotic nuclei. The percent of apoptotic cells was calculated as the ratio of apoptotic cells to total number of cells.” left out

pIC50: −log10 of the molar value.

With `CSc1ncnc2c1ccn2C1O[C@H](COP(=O)(O)O)[C@@H](O)[C@H]1O` (stereo partly drawn) [INT2-31, 4-(Methylthio)-7-(5-O-phosphono-D-ribofuranosyl)-{7H-Pyrrolo[2,3-d]pyrimidine}], the pIC50 (in general, the IC50 on a negative log10 scale, so that one unit is a factor of ten) in data set [1] (Homo sapiens, KYSE-70, KYSE70, 72 hours, read-out: IC50 of INT2-31, cell viability) is 5.34; in data set [2], 5.49; in data set [3] it was 5.25. For the same compound, in data set [1] (KYSE 70, 0.5 and 1 μM INT2-31), the “effect of combination with 5-FU on cell viability” value was “synergistic effects”. In addition, the “sensitivity of cells to single-agent treatment” value in data set [1] (KYSE 70, 72 hours) is “sensitive”. For the same compound, the “cell proliferation (CSFE)” value in the data set on C8161 melanoma cells was “inhibited cell proliferation”.
